Experimental data as given in patent publication US8168651B2, “Protein kinase modulators” (Cylene Pharmaceuticals, Inc., priority 2008, dated 2012).

Columns and labels:
Assay in all cases: Standardized radiometric kinase assays, percentage of activity at 0.5 μM;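 also: Read-out is ³³P-labelled substrate protein phosphorylated by each kinase, captured on filters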
[1] = biological target: each individual kinase of the panel (Homo sapiens, UniProt P54764)
[2] = biological target: each individual kinase of the panel (Homo sapiens, UniProt P29323)
each individual kinase of the panel (Homo sapiens, UniProt P29323), sequence (P29323 19-1055 limits assumed): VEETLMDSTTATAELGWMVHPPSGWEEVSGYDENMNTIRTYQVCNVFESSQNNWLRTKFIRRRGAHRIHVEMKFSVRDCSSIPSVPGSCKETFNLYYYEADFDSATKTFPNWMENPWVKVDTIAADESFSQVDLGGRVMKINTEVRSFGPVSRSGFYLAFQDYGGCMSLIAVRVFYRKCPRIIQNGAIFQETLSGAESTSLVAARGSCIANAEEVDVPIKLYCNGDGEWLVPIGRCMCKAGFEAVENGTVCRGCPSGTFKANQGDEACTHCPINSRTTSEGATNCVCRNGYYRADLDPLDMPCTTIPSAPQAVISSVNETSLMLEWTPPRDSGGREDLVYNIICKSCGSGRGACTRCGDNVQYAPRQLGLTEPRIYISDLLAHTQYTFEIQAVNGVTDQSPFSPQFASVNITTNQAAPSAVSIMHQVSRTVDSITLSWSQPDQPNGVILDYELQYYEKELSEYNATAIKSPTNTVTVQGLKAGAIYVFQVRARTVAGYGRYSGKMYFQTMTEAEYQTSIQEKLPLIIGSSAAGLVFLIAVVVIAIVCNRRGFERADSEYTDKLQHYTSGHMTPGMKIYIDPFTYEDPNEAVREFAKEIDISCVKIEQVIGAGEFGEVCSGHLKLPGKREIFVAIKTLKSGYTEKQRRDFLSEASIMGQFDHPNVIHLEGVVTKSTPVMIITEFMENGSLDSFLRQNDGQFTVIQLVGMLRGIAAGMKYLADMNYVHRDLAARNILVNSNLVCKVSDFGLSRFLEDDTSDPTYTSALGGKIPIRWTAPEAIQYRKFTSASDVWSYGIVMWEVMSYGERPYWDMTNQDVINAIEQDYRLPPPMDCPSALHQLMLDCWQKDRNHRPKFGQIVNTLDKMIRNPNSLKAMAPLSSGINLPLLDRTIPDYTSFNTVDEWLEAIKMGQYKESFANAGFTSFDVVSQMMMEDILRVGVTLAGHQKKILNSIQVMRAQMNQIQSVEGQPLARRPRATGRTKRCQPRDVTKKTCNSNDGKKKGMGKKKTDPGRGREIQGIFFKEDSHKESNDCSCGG

[3] = biological target: each individual kinase of the panel (Homo sapiens, UniProt Q09013)
[4] = biological target: each individual kinase of the panel (Homo sapiens, UniProt P05129)
[5] = biological target: each individual kinase of the panel (Mus musculus, UniProt P63085)
each individual kinase of the panel (Mus musculus, UniProt P63085), sequence (P63085 2-358 limits assumed): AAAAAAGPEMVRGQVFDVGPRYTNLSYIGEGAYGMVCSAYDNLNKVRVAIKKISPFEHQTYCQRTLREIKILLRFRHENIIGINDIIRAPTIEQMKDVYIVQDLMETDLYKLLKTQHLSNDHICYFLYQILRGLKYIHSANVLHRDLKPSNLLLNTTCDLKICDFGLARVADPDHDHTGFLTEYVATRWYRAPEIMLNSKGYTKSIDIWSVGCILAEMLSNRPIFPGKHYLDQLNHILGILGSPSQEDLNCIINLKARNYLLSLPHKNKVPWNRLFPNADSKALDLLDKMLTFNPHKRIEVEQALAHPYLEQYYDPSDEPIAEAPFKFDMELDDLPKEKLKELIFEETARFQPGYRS

[6] = biological target: each individual kinase of the panel (Homo sapiens, UniProt Q14289)
[7] = biological target: each individual kinase of the panel (Homo sapiens, UniProt Q9P0L2)
[8] = biological target: each individual kinase of the panel (Homo sapiens, UniProt Q9Y5S2)
[9] = biological target: each individual kinase of the panel (Homo sapiens, UniProt Q9BYP7)
[10] = biological target: each individual kinase of the panel (Homo sapiens, UniProt Q9UBE8)
[11] = biological target: each individual kinase of the panel (Homo sapiens, UniProt P00519, T315I)
[12] = biological target: each individual kinase of the panel (Homo sapiens, UniProt P42684)
[13] = biological target: each individual kinase of the panel (Homo sapiens, UniProt Q9HC98)
[14] = biological target: each individual kinase of the panel (Homo sapiens, UniProt P36896)
each individual kinase of the panel (Homo sapiens, UniProt P36896), sequence (P36896 24-505 limits assumed): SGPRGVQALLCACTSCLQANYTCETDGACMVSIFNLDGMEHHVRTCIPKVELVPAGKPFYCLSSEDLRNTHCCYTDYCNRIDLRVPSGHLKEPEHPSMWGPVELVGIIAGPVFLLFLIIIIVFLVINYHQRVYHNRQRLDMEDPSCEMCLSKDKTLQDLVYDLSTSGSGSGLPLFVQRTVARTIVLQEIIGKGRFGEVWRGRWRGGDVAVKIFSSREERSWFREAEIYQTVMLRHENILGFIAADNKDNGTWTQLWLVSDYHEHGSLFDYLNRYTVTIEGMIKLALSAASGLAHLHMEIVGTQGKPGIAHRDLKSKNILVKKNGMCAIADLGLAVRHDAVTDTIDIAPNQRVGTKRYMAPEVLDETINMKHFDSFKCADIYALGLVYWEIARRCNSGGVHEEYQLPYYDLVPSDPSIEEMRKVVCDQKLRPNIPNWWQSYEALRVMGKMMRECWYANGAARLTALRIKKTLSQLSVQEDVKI

[15] = biological target: each individual kinase of the panel (Homo sapiens, UniProt Q16539)
each individual kinase of the panel (Homo sapiens, UniProt Q16539), sequence (Q16539 2-360 limits assumed): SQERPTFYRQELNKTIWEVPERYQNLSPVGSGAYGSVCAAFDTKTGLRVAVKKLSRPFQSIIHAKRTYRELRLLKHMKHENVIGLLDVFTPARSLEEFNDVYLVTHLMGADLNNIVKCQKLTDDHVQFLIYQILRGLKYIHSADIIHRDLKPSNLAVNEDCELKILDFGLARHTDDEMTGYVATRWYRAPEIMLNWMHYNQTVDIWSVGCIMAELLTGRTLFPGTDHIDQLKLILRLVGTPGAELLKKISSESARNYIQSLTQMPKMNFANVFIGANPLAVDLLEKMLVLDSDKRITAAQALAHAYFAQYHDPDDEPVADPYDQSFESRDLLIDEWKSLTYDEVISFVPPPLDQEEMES

[16] = biological target: each individual kinase of the panel (Homo sapiens, UniProt Q96BR1)
[17] = biological target: each individual kinase of the panel (Homo sapiens, UniProt P29320)
each individual kinase of the panel (Homo sapiens, UniProt P29320), sequence (P29320 21-983 limits assumed): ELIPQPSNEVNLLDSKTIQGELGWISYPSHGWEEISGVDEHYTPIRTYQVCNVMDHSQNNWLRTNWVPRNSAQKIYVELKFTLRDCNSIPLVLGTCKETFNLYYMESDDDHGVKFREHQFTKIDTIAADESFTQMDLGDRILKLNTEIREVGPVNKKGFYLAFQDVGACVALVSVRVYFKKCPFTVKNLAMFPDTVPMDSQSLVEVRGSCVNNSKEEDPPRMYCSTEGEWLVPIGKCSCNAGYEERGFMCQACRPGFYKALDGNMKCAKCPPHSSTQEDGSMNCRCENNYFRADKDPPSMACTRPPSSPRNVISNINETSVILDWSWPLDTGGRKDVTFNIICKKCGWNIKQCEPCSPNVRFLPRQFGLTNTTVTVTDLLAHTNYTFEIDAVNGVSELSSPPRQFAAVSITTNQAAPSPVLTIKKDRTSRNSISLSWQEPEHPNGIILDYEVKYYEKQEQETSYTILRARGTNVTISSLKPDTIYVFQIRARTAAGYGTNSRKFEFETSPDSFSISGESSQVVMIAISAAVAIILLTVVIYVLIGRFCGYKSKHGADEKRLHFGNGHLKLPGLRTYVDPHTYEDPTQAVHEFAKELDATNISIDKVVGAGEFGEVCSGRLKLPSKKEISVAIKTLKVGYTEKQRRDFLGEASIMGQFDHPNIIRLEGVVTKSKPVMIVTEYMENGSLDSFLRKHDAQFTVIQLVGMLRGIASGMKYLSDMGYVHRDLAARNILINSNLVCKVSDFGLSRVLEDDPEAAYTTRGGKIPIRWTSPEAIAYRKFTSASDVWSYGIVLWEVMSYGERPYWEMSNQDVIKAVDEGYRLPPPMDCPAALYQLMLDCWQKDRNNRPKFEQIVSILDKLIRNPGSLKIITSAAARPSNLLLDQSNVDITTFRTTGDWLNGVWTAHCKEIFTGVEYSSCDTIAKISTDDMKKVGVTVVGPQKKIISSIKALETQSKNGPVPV

[18] = biological target: each individual kinase of the panel (Homo sapiens, UniProt P52564)
[19] = biological target: each individual kinase of the panel (Homo sapiens, UniProt O96013)
[20] = biological target: each individual kinase of the panel (Homo sapiens, UniProt P22607)
each individual kinase of the panel (Homo sapiens, UniProt P22607), sequence (P22607 23-806 limits assumed): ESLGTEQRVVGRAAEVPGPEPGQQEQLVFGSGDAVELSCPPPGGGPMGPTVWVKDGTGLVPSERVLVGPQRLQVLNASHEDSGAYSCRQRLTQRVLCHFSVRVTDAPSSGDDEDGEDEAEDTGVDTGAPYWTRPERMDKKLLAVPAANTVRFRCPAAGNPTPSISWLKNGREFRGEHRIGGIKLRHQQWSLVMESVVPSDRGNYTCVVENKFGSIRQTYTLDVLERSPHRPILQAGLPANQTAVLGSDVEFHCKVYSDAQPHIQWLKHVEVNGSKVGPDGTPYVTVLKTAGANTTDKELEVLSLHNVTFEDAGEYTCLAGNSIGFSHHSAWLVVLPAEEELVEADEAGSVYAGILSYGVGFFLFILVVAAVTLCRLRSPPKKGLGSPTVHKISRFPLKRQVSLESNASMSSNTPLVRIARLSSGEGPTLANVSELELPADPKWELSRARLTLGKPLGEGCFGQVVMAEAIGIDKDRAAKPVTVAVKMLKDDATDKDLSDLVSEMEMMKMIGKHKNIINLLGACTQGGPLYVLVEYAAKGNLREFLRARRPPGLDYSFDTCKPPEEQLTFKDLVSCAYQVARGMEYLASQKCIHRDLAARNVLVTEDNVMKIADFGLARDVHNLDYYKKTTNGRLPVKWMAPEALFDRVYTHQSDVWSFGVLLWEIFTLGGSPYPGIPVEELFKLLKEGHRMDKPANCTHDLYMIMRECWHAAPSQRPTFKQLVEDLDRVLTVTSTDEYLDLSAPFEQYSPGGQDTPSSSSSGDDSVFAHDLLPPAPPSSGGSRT

[21] = biological target: each individual kinase of the panel (Homo sapiens, UniProt Q9H2G2)
[22] = biological target: each individual kinase of the panel (Homo sapiens, UniProt P11362, V561M)
[23] = biological target: each individual kinase of the panel (Homo sapiens, UniProt P45984)
[24] = biological target: each individual kinase of the panel (Homo sapiens, UniProt Q8TF76)
[25] = biological target: each individual kinase of the panel (Homo sapiens, UniProt P21802, N549H)
each individual kinase of the panel (Homo sapiens, UniProt P21802, N549H), sequence (P21802 22-821 N549H limits assumed): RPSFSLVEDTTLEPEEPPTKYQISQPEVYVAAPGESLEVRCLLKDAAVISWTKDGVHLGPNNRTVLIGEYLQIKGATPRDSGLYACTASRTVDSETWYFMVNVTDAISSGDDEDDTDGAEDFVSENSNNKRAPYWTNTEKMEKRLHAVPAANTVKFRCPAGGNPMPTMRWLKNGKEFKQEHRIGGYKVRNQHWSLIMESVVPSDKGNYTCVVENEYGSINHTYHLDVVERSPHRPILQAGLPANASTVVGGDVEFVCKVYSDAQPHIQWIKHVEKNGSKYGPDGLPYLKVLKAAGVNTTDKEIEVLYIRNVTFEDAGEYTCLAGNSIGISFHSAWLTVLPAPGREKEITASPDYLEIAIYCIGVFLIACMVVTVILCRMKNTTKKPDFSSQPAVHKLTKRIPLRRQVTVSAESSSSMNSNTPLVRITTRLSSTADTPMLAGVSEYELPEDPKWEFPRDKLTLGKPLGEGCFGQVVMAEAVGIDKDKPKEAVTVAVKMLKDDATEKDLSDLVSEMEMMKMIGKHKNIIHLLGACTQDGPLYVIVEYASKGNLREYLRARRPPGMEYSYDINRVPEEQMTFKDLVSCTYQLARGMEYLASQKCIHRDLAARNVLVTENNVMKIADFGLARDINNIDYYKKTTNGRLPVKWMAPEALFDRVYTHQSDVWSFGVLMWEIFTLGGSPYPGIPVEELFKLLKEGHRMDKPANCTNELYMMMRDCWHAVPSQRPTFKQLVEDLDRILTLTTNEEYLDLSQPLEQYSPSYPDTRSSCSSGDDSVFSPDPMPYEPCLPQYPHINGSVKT

[26] = biological target: each individual kinase of the panel (Homo sapiens, UniProt Q9HBY8)
[27] = biological target: each individual kinase of the panel (Homo sapiens, UniProt Q8NG66)
[28] = biological target: each individual kinase of the panel (Homo sapiens, UniProt Q13555)
[29] = biological target: each individual kinase of the panel (Homo sapiens, UniProt O75582)
[30] = biological target: each individual kinase of the panel (Homo sapiens, UniProt P51817)
[31] = biological target: each individual kinase of the panel (Homo sapiens, UniProt Q9UHD2)

Structure (SMILES): C#Cc1cccc(Nc2nc3cc(C(=O)O)ccc3c3cncnc23)c1 [drawing 1135]
- EPHA4 percentage of activity [1]: −3%
- EPHB2 percentage of activity [2]: 13%
- DMPK percentage of activity [3]: 4%
- PRKCG percentage of activity [4]: 0%
- MAPK2(m) percentage of activity [5]: −6%
- Pyk2 percentage of activity [6]: −3%
- MARK1 percentage of activity [7]: 0%
- MRCKB percentage of activity [8]: 0%
- WNK3 percentage of activity [9]: −17%
- NLK percentage of activity [10]: 3%
- ABL1(T3151) percentage of activity [11]: −7%
- ABL2 percentage of activity [12]: 2%
- NEK6 percentage of activity [13]: −3%
- ALK4 percentage of activity [14]: −15%
- p38-alpha percentage of activity [15]: 1%
- SGK3 percentage of activity [16]: 2%
- EPHA3 percentage of activity [17]: −6%
- MEK6 percentage of activity [18]: 6%
- PAK4 percentage of activity [19]: −12%
- FGFR3 percentage of activity [20]: −2%
- SLK percentage of activity [21]: −15%
- FGFR1 (V561M) percentage of activity [22]: 12%
- JNK2A2 percentage of activity [23]: −7%
- GSG2 percentage of activity [24]: 4%
- FGFR2 (N549H) percentage of activity [25]: 4%
- SGK2 percentage of activity [26]: 2%
- NEK11 percentage of activity [27]: −2%
- CAMK2G percentage of activity [28]: 36%
- MSK1 percentage of activity [29]: 19%
- PRKX percentage of activity [30]: 3%
- TBK1 percentage of activity [31]: 70%
